According to paper PMC6416395, “B1.12: a novel peptide interacting with the extracellular loop of the EBV oncoprotein LMP1” (Scientific Reports, 2019):
*: point of attachment. FITC = O=C1OC2(c3ccc(O)cc3Oc3cc(O)ccc32)c2ccc(NC(=S)*)cc21

B1: B1.12 peptide (peptide)
peptide: ACPLDLRSPCG
notes: peptide selected by phage display from the Ph.D.-C7C library against the B1 loop peptide of LMP1; Made on Rink amide MBHA resin, so the C-terminus may be an amide (surmised); also called selected peptide B1.12; source: synthetic peptide (solid-phase Fmoc chemistry, RP-HPLC purified)
B3: B1 peptide (first extracellular loop of LMP1) (peptide)
peptide: CMSDWTGG
notes: first extracellular loop of latent membrane protein 1 (LMP1), Epstein-Barr virus; Made on Rink amide resin, so the C-terminus may be an amide (surmised); also called target B1; B1 loop of LMP1; source: synthetic peptide (solid-phase Fmoc chemistry, RP-HPLC purified)

Legend:
[1] = tested on: LMP1 positive cells (C666.1, HeLa/LMP1); assay: Cellular uptake by flow cytometry, LMP1 positive cells; format: cell-based; details: FITC-labeled peptide 100 μM, 24 hours, C666.1 and HeLa/LMP1
Procedure: (§1) The cellular uptake of the FITC labeled B1.12 peptide/unrelated peptide was analyzed by flow cytometry. C666.1, HeLa/LMP1, and HeLa/Gpt cells, were seeded at a density of 4 × 10^5 cells/mL at 37 °C for 24 hours, and then incubated with 100 μM of both FITC-labeled peptides for 24 hours. Cells were washed three times, trypsinized, centrifuged at 1700 rpm for 5 minutes and then resuspended in 0.35 mL of PBS. The fluorescence associated to the cells was measured using LSR Fortessa X-20 (Becton Dickinson) for HeLa/LMP1 or Attune NxT Flow Cytometer (Thermofisher) cytometer for C666.1 and HeLa/Gpt cells.

C666.1 cells = assay: Fluorescence microscopy, C666.1; format: cell-based; details: 10 µM FITC-labeled peptide, (1 hour elsewhere in the source), fixed C666.1 cells
Procedure: To further investigate the fixation of the peptide on C666.1 cells, fluorescence microscopy was performed. […] After being washed with PBS, the fixation of LMP1 was detected by Alexa-fluor 405 labeled secondary antibody (1/100). HeLa/Gpt cells were also stained as described above to serve as negative control. Images were analyzed using an EVOS Floid Cell Imaging Station (Life Technologies).

[2] = tested on: LMP1 negative cells (HeLa/Gpt); assay: Cellular uptake by flow cytometry, LMP1 negative cells; format: cell-based; details: FITC-labeled peptide 100 μM, 24 hours
Procedure: as §1

HeLa/Gpt cells = assay: Fluorescence microscopy, HeLa/Gpt; format: cell-based; details: 10 µM FITC-labeled peptide, HeLa/Gpt negative control
Procedure: To further investigate the fixation of the peptide on C666.1 cells, fluorescence microscopy was performed. Approximately 1 × 10^6 cells were washed 3 times with PBS, fixed with 4% parafolmaldehyde for 15 minutes, blocked by 5 mg/mL BSA for 1 hour, and incubated with 10 μM FITC labeled B1.12 peptide or anti-LMP1 antibody (1/500 Dako) for 1 hour at room temperature. After being washed with PBS, the fixation of LMP1 was detected by Alexa-fluor 405 labeled secondary antibody (1/100). HeLa/Gpt cells were also stained as described above to serve as negative control. Images were analyzed using an EVOS Floid Cell Imaging Station (Life Technologies).

[3] = target: B3; assay: ELISA; competitive inhibition: B1 peptide coated (100 µl of 1 mg/mL in NaHCO3); B1.12 peptide incubated 1 hour at room temperature, then B1.12 phage (2 × 10^10 pfu) 1 hour; bound phage detected by anti-M13 antibody; details: both partners purified
[4] = target: Latent membrane protein 1 (LMP1) on HeLa/LMP1 cells (Epstein-Barr virus) (UniProt P03230); assay: ELISA; competitive inhibition on HeLa/LMP1 cells fixed with 4% paraformaldehyde (10^4 cells/well); synthetic peptide 50-200 µM at 37 °C for 1 hour, then B1.12 phage; anti-M13 antibody detection
Latent membrane protein 1 (LMP1) on HeLa/LMP1 cells (Epstein-Barr virus), sequence (P03230 whole entry): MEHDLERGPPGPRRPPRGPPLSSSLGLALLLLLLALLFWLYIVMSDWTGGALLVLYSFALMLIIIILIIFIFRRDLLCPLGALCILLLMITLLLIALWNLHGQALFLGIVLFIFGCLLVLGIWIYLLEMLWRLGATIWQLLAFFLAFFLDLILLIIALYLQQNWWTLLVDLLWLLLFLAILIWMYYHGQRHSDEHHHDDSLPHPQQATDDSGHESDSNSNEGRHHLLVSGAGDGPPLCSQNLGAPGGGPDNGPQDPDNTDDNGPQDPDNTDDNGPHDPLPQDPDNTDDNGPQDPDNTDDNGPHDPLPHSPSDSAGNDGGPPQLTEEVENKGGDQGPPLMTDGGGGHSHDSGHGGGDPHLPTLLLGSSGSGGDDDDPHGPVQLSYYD

[5] = target: B3; assay: ELISA; B1 peptide (100 µg) coated on the plate; about 1 × 10^10 pfu of phage clone added, 1 hour at room temperature; ten washes with 0.5% TBST; anti-M13 antibody and HRP anti-mouse, ABTS; details: both partners purified
B1.12 peptide = target: B1; assay: ITC; 30 °C, NaHCO3 buffer 0.1 M pH 5.7; B1 peptide (0.2 mM) in the syringe injected (2 µL per injection) into B1.12 peptide (0.01 mM) in the cell; details: both partners purified

Molecule: FITC-labeled B1.12 peptide: N-terminus FITC labeled B1.12 ({FITC}-ACPLDLRSPCG-NH2; cysteine pairing not given here)
- cellular uptake [1]: significantly higher uptake
- colocalization with LMP1 (C666.1 cells): co-localized with LMP1
- cellular binding/uptake [2]: no binding
- binding to cells (microscopy) (HeLa/Gpt cells): no binding was observed

Molecule: B1
- inhibition ratio of phage B1.12 binding at 400 µM peptide [3]: ~43%
- inhibition ratio of phage B1.12 binding at 100 µM peptide [4]: 45%

B2: B1.12 phage clone (other)
chain: ACPLDLRSPCGGGS
notes: whole phage particles were used and detected with an anti-M13 antibody; also called phage B1.12; positive phage B1.12; source: M13 phage clone from the Ph.D.-C7C library (New England Biolabs), amplified in E. coli ER2738 and titrated; not shown: M13 coat protein pIII (on the phage particle), C-terminal, kept
- binding result [5]: binds

Molecule: B3
- binding result (B1.12 peptide): binds
